The text below walks through data of patent publication US20100260716A1, “COMPOUNDS FOR TREATING DEM[…]” (UCB PHARMA GMBH, priority 2007, published 2010).

Assay [1] addresses collapsin response mediator protein 2 (CRMP-2) (Homo sapiens, UniProt Q16555). The following applies: statement quoted from poster, Stoehr et al., November 2006; cited from earlier work.
For assay [2], the system named is acute EAE induced by MBP/CFA. Briefly: Acute experimental allergic encephalomyelitis (EAE) rat model. The assay is classed as in vivo, female Lewis rats. The following applies: days 0-21, vehicle-treated animals onset at day 9, significantly postponed.
Method: EAE is induced in female Lewis rats on day zero of the study by a single inoculum injection of myelin basic protein (MBP) and complete Freund's adjuvant (CFA) containing heat killed Mycobacterium tuberculosis F137 Ra at a concentration of 4 mg/ml (MD Biosciences Ltd, Israel). This MBP/CFA encephalitogenic emulsive inoculum (100 μg MBP+200 μg CFA) is injected at a total dose volume of 100 μl/animal, delivered as 2×50 subcutaneous bilateral injections into the intraplanar paw regions.
Lacosamide is administered by intraperitoneal (i.p.) injection twice daily (b.i.d.) on days 0-21 of the study, in a volume of 10 ml/kg at daily doses of 6, 20 and 60 mg/kg. A vehicle control containing no lacosamide is administered by the same route and at the same frequency.
The duration of the study is 21 days. Careful clinical examinations are carried out and recorded at least once daily in addition to EAE clinical scoring and assessment. […]
Initially, all animals are examined for signs of any neurological responses and symptoms prior to EAE induction (day 0) and thereafter examined on a daily basis through the entire 21-day observation period. To avoid experimental bias, EAE reactions are determined in a blinded fashion, as much as possible, by a staff member unaware of the specific treatment applied. […]

Each structure is given as a SMILES string.

Consider `COC[C@@H](NC(C)=O)C(=O)NCc1ccccc1` [lacosamide, (R)-2-acetamido-N-benzyl-3-methoxypropionamide], for which the “Effect on CRMP-2 and on the effects of neurotrophic factors on axon growth” value in assay [1] was “modulates CRMP-2 and as a consequence attenuates the effects of neurotrophic factors on axon growth”. The “Disease onset (day after EAE induction)” value in assay [2] (10 mg/kg b.i.d. i.p.) and in assay [2] (30 mg/kg b.i.d. i.p.) was 12 days in each case.
